Source: patent US6635648B2, “Combination therapy using sympathetic nervous system antagonists and endothelin antagonists” (Queen's University at Kingston, priority 2000, dated 2003)

Legend:
[1] = NO-selectivity of depressor responses before and after maximal NOS blockade with L-NAME; assay type: in vivo, rat; settings: for Change in Depressor Response: after vs before 100 mg/kg L-NAME; for Δ MAP L-NAME 100 mg/kg (mmHg): depressor agent after maximal NOS blockade with 100 mg/kg L-NAME; for Δ MAP Control (mmHg): depressor agent before L-NAME
Procedure: (§1) Determination of MAP: Three days after surgery, MAP was recorded (PowerLab/8s DAS, ADInstruments, Milford, Mass.). […] An equilibration period of at least 1 hour was allowed prior to any experimentation to establish a steady baseline. […] Mean arterial pressure (MAP) and heart rate (HR) were calculated as an average over five minutes for steady state conditions and 10 seconds for transient drug responses.
Hypersensitivity to NO-mimetics following NOS blockade is shown to be the result of a specific interaction between ET and depressor agents that target the NO pathway. To confirm the specificity of this interaction, dose responses to a variety of depressor agents targeting both NO-dependent and NO-independent pathways were performed before and after maximal NOS blockade with 100 mg/kg L-NAME. One dose of each depressor agent that decreased MAP by approximately 10 mmHg was chosen for analysis. The agents compared were SNP ([…]; 30 s infusion), 8-bromo-cGMP (8-Br-cGMP; 3000 mg/kg/min; cumulative from 30, 100, 300, 1000, 3000 dose response, 2 min infusion, 3 min between doses), bradykinin (30 mg/kg/min; 30 s infusion), PGE1 ([…]; cumulative dose response, 20 min/dose) and INE (0.2 mg/kg/min; 30 s infusion).

[2] = Overshoot and rate of recovery of MAP following 30 second SNP depressor challenge; assay type: in vivo, rat; settings: for Overshoot (mmHg) of MAP relative to control response: following SNP (10 μg/kg/min) depressor challenge, maximal blockade, 3 mg/kg L-NAME in TRZ combinations; for Rate of Recovery (mmHg/s): following SNP (30 μg/kg/min) depressor challenge, 10 second interval after onset of recovery; for Overshoot: Change vs Control: following SNP (10 mg/kg/min) depressor challenge; for Rate of Recovery: Change vs Control: following SNP (30 mg/kg/min) depressor challenge
Procedure: as §1
In Examples 2, 3 and 4, we used a 30 second infusion of SNP to induce a transient depressor response (less than 1 minute) in order to assess mechanisms involved in homeostatic adjustment, in each case comparing treatment to the respective control response (FIG. 8, Table 3). […] In contrast, after α1-adrenoceptor antagonism the response to the depressor challenge was altered such that there was a marked overshoot of MAP above baseline during the recovery phase. In some instances MAP took in excess of five minutes to return to baseline following the overshoot. […] This response was unchanged by NOS antagonism (FIG. 8b) and RAS inhibition (FIG. 8c).
In addition, we characterized the rate of recovery of MAP as determined by the upward slope of the arterial blood pressure trace during a 10 second interval immediately after the onset of recovery (Table 4). […] In contrast, the combination of alpha-blockade and NOS antagonism doubled the magnitude of the recovery slope.

[3] = Vascular reactivity: depressor response to NO-mimetic glyceryl trinitrate (GTN) infusion; assay type: in vivo, rat
Procedure: as §1
(§2) Data Analysis: Dose responses to N^ω-nitro-L-arginine-methyl ester (L-NAME, Sigma, Mo.) in terazosin- or prazosin-treated animals vs control were compared using unpaired, two-tailed t-test for each dose. […] In all cases a p value less than 0.05 was considered to be statistically significant.
NOS blockade hypertension also results in a hypersensitivity to NO-mimetics such as SNP and GTN. This set of experiments examined whether alpha-adrenoceptor antagonism and/or complete removal of α-signaling could also alter vascular reactivity to exogenous NO. Dose response curves to 30 second infusions of the NO-mimetics sodium nitroprusside (1-30 μg/kg/min SNP i.v.) or glyceryl trinitrate (25-1600 μg/kg/min GTN i.v.) were generated in control animals to determine normal vasodilatory reactivity to exogenous NO. Reactivity was then determined following minimal and maximal NOS blockade by administration of a low dose followed by a high dose of L-NAME (3 and 30 mg/kg L-NAME i.v., respectively). […] In these animals additional dose responses to each NO-donor were performed after initial alpha-adrenoceptor antagonism and before L-NAME treatment. Further assessment of the impact of removal of α1-adrenoceptor signaling was made through ganglionic blockade with hexamethonium (30 mg/kg i.v.). Down-stream sympathetic signaling is effectively abolished by completely blocking the ganglia with hexamethonium. After establishment of a control dose response to SNP, maximal ganglionic blockade was induced and MAP was allowed to reach a steady state. The vascular reactivity to SNP was reassessed after hexamethonium alone and following both a low then high dose of L-NAME (3 and 30 mg/kg L-NAME i.v., respectively).

[4] = Mean arterial pressure (MAP) in conscious catheterised rats after drug treatment; assay type: in vivo, rat; settings: for Δ MAP (from initial baseline; mmHg): Table 3, L-NAME 3 mg/kg in the triple combination; for MAP after terazosin treatment: terazosin 2 mg/kg i.v., SB209670 treated animals (label SB209670) vs animals without SB209670 (label terazosin)
Procedure: Animals: Male Sprague-Dawley rats (250-300 g) from Charles River Laboratories (St. Constant, Quebec) were individually housed under conditions of 12-hour light/dark cycle at a room temperature of 22-24° C. Purina® rodent chow and tap water were provided ad libitum. Rats were housed for at least one day prior to catheter implantation and allowed a minimum of 3 days to recover from the surgery before any experiments. […] Experiments were performed in accordance with standards established by the Canadian Council of Animal Care.
Surgery: The surgical technique was based on that described by Thompson et al. (Hypertension. 20(6):809-815, 1992). In brief, rats were anaesthetized with Hypnorm®/Nersed® (1:2:1 ratio of Hypnorm®:H2O:Versed® at a dose rate of 3 ml/kg i.p.). […] An additional catheter sat loosely in the abdominal cavity for intra-peritoneal administration of drugs. All catheters were tunneled subcutaneously, exteriorized at the nape of the neck and sutured into place. The catheters were filled with heparin saline (50 IU/ml) and sealed at the exposed end.
as §1
The NOS antagonist L-NAME was administered in increasing doses (1,3,10,30 mg/kg i.v.). MAP was measured after each dose when pressure reached steady state (10 min).

[5] = Vascular reactivity: depressor response to NO-mimetic sodium nitroprusside (SNP) infusion; assay type: in vivo, rat; settings: for Change in Vascular Response to SNP: Table 3; for depressor response to SNP: treatment alone at maximal blockade (L-NAME 30 mg/kg), SNP 1-30 μg/kg/min i.v.; for depressor response to SNP in the presence of L-NAME: treatment combined with L-NAME 3 and 30 mg/kg
Procedure: as §1, §2
This set of experiments examined whether alpha-adrenoceptor antagonism and/or complete removal of α-signaling could also alter vascular reactivity to exogenous NO. […] Reactivity was then determined following minimal and maximal NOS blockade by administration of a low dose followed by a high dose of L-NAME (3 and 30 mg/kg L-NAME i.v., respectively). […] In these animals additional dose responses to each NO-donor were performed after initial alpha-adrenoceptor antagonism and before L-NAME treatment. Further assessment of the impact of removal of α1-adrenoceptor signaling was made through ganglionic blockade with hexamethonium (30 mg/kg i.v.). Down-stream sympathetic signaling is effectively abolished by completely blocking the ganglia with hexamethonium.

[6] = compared with the placebo group; cited from earlier work
[7] = treatment alone at maximal blockade (L-NAME 30 mg/kg), GTN 25-1600 μg/kg/min i.v.

| SMILES | Change in Depressor Response [1] | Δ MAP L-NAME 100 mg/kg (mmHg) [1] [mmHg] | Δ MAP Control (mmHg) [1] [mmHg] | Overshoot (mmHg) of MAP relative to control response [2] [mmHg] | Rate of Recovery (mmHg/s) [2] [mmHg/s] | Overshoot: Change vs Control [2] | Rate of Recovery: Change vs Control [2] | Δ MAP (from initial baseline; mmHg) [4] [mmHg] | Change in Vascular Response to SNP [5] | depressor response to SNP [5] | further results |
| --- | --- | --- | --- | --- | --- | --- | --- | --- | --- | --- | --- |
| Nc1nc2c(nc(Br)n2[C@@H]2O[C@@H]3COP(=O)(O)O[C@H]3[C@H]2O)c(=O)[nH]1 [8-Br-cGMP, 8-bromo-cyclic-GMP] | ↑↑ | −26.57 ± 6.76 | −0.67 ± 2.83 | – | – | – | – | – | – | – | – |
| COc1cc2nc(N3CCN(C(=O)C4CCCO4)CC3)nc(N)c2cc1OC (stereo not drawn) [Terazosin, terazosin] | – | – | – | 45 ± 5.19 | 1.2 ± 0.42 | ↑ | ←→ | −28 ± 18.5 | ↑ | enhanced | depressor response to GTN ([3]; terazosin combined with moderate NOS blockade (3 mg/kg L-NAME)): significantly enhanced; depressor response to GTN [3, 7]: only statistically significant at the highest dose of GTN; decrease in MAP ([4]; losartan + enalaprilat 30 mg/kg i.p. 1:1 vs terazosin alone): 28.09±18.49; MAP after terazosin treatment [4]: 77.37±17.48 mmHg; depressor response to SNP in the presence of L-NAME [5]: enhanced relative to control |
| COC(=O)[C@@H](N)CCCNC(=N)N[N+](=O)[O-] [L-NAME, N^ω-nitro-L-arginine-methyl ester] | – | – | – | −1.6 ± 3.68 | 1.2 ± 0.73 | ←→ | ←→ | 36 ± 11.1 | ↑ | enhanced | vascular reactivity to GTN ([3]; moderate NOS blockade, 3 mg/kg L-NAME alone): did not produce a significant change; depressor response to GTN [3, 7]: enhanced |
| COc1cc2nc(N3CCN(C(=O)c4ccco4)CC3)nc(N)c2cc1OC [prazosin] | – | – | – | – | – | – | – | – | – | – | mortality among patients with chronic congestive heart failure [6]: the same; lowering of MAP after alpha-adrenoceptor antagonist ([4]; prazosin 3 mg/kg i.v. or terazosin 2 mg/kg i.v., steady state, conscious rats): 36.35±13.96 mmHg |
| CC(C)NCC(O)c1ccc(O)c(O)c1 (stereo not drawn) [Isopropyl-norepinephrine (INE), Isopropyl-norepinephrine] | ←→ | −10.52 ± 4.04 | −9.42 ± 7.38 | – | – | – | – | – | – | – | – |
| O=[N+]([O-])O[C@H]1CO[C@H]2[C@@H]1OC[C@H]2O[N+](=O)[O-] [isosorbide dinitrate] | – | – | – | – | – | – | – | – | – | – | mortality among patients with chronic congestive heart failure [6]: reduced significantly |
| CCCOc1ccc2c(c1)[C@@H](c1ccc(OC)cc1OCC(=O)O)[C@H](C(=O)O)[C@H]2c1ccc2c(c1)OCO2 [SB209670] | – | – | – | 0.5 ± 4.98 | 1.4 ± 1.00 | ←→ | ←→ | – | – | – | overshoot of MAP in treatment groups demonstrating overshoot ([2]; co-administration with alpha-adrenoceptor antagonist with or without NOS antagonist): abolished; effect on MAP vs control ([4]; SB209670 alone): did not lower MAP significantly; MAP ([4]; SB209670 i.v. bolus then 100 μg/kg/min infusion, alone, control 98.29±6.43): 90.41±4.36 mmHg; MAP after terazosin treatment [4]: 51.83±4.02 mmHg; enhanced SNP response with terazosin combined with moderate NOS antagonism ([5]; terazosin 2 mg/kg + L-NAME 3 mg/kg + SB209670): prevented; dose response to SNP after terazosin treatment ([5]; terazosin 2 mg/kg i.v. in animals receiving SB209670): significantly blunted |
| CCCCc1nc(Cl)c(CO)n1Cc1ccc(-c2ccccc2-c2nn[nH]n2)cc1 [losartan] | – | – | – | – | – | – | – | – | – | failed to increase the sensitivity | – |
| CCCCC[C@H](O)/C=C/[C@H]1[C@H](O)CC(=O)[C@@H]1CCCCCCC(=O)O [PGE1] | ←→ | −15.51 ± 9.74 | −15.21 ± 5.72 | – | – | – | – | – | – | – | – |
| C[N+](C)(C)CCCCCC[N+](C)(C)C [Hexamethonium, hexamethonium] | – | – | – | – | – | – | – | −18 ± 10.0 | ↑ | induced an almost identical pattern of hypersensitivity | depressor response to SNP in the presence of L-NAME [5]: further enhanced |
